# Data reported in US9556132B2, “Tetrazole derivatives and their use as potassium channel modulators” (SANIONA A/S, priority 2012, dated 2017).
# Biological target: human IK (Homo sapiens (Human), UniProt O15554)
# Experiment: Inhibition of IK channels expressed in HEK293 cells, thallium (I) sensitive FLIPR assay
# Format: cell-based
# Settings: HEK293 cells over-expressing human IK; Tl+-sensitive BTC fluorescence (FLIPR); inhibition of activity induced by Ca2+-ionophore A23187
# Protocol: Following experiment determines the ability of a test compound to inhibit the activity of IK channels heterologously expressed in human HEK293 cells, and was used as the primary screen. The ability is determined as per cent inhibition of the activity induced by addition of the Ca^2+-ionophore A23187 (considered a maximum response). The activity is determined using a standard thallium (I) sensitive assay, e.g. using a fluorometric method in a Fluorescent Image Plate Reader (FLIPR) as described below in more detail.
# Full concentration/response curves are generated and IC50 values are calculated based on the degree of inhibition of the maximum response. IC50 values (Inhibitory Concentration) represent the concentration of the test substance at which 50% of the maximum channel activity is inhibited.
# Human HEK293 cells over-expressing human IK are grown in culture medium (DMEM supplemented with 10% foetal bovine serum), in polystyrene culture flasks ([…]) in a humidified atmosphere of 5% CO2 in air, at 37° C. Cell confluence should be 80-90% on day of plating. Cells are rinsed with 4 mL of PBS (phosphate buffered saline) and incubated 2 min with 1 mL of Trypsin-EDTA. After addition of 25 mL of culture medium cells are re-suspended by trituration with a 25 mL pipette.
# The cells are seeded at a density of ˜3×10^6 cells/mL (25 μL/well) in black-walled, clear bottom, 384-well plates pre-treated with 0.01 g/L poly-D-lysin (20 μL/well for ≧30 min). Plated cells were allowed to proliferate for 24 h before loading with dye.
# BTC-AM ([…], Invitrogen) is added 25.5 μl DMSO. The BTC-AM stock solution (2 mM) is diluted to a final concentration of 2 μM in […] assay buffer (in mM: 140 Na^+-gluconate, 2.5 K^+-gluconate, 6 Ca2^+-gluconate, 1 Mg^2+ gluconate, 5 glucose, 10 HEPES, pH 7.3) containing 2 μM ouabain, 2 mM amaranth and 1 mM tartrazine.
# The culture medium is aspirated from the wells, and 25 μl of the BTC-AM loading solution are added to each well. The cells are incubated at 37° C. for 60 min.
# After the loading period, the Tl^+-sensitive BTC fluorescence signal is measured over time using a FLIPR.
# • Temperature: Room temp. • First addition: 12 μl test or control compound after 15 sec at a rate of 30 μL/sec and starting height of 20 μL • Second addition: 12 μL stimulus buffer (Cl^− free assay buffer supplemented with 1 mM Tl2SO4, 5 μM A23187 as well as the quenchers amaranth (2 mM) and tartrazine (1 mM)) is added after an additional 3 minutes at a rate of 30 μL/sec and starting height of 30 μL • Reading intervals: First sequence—3 sec×5, 2 sec×24 and 5 sec×25 • Second sequence—1 sec×5, 2 sec×24 and 5 sec×36
# Addition plates (compound plate and stimulus plate) are placed in positions 2 and 3, respectively. Cell plates are placed in position 1 and run using the “IK blocker (EtOH wash, two additions)” program. FLIPR will then take the appropriate measurements in accordance with the interval settings above. Fluorescence obtained after stimulation is corrected for the mean basal fluorescence (in Cl^− free assay buffer).
# Full concentration/response curves are generated and IC50 values (“Inhibitory Concentration”, i.e. the concentration of the test substance at which 50% of the maximum channel activity is inhibited) are calculated. The responses are calculated based on peak values.
row,Compound,IC50
1,"OCc1ccccc1-c1ccccc1-c1nnnn1-c1ccccc1F [Compound 28, (2-{2-[1-(2-Fluorophenyl)-1H-1,2,3,4-tetrazol-5-yl]phenyl}phenyl)methanol]",770 nM
2,"COc1ccccc1-n1nnnc1-c1ccccc1-c1ccccc1F [Compound 54, 5-[2-(2-Fluorophenyl)phenyl]-1-(2-methoxyphenyl)-1H-1,2,3,4-tetrazole]",780 nM
3,"Nc1ccccc1-c1ccccc1-c1nnnn1-c1ccccc1F [Compound 27, 2-{2-[1-(2-Fluorophenyl)-1H-1,2,3,4-tetrazol-5-yl]phenyl}aniline]",900 nM
4,"CN(C)c1ccccc1-c1ccccc1-c1nnnn1-c1ccccc1F [Compound 26, 2-{2-[1-(2-Fluorophenyl)-1H-1,2,3,4-tetrazol-5-yl]phenyl}-N,N-dimethylaniline]",820 nM
5,"Fc1ccccc1-n1nnnc1-c1ccccc1-c1ccccc1C(F)(F)F [Compound 22, 1-(2-Fluorophenyl)-5-{2-[2-(trifluoromethyl)phenyl]phenyl}-1H-1,2,3,4-tetrazole]",1700 nM
6,"NC(=O)COc1ccccc1-c1ccccc1-c1nnnn1-c1ccccc1F [Compound 17, 2-(2-{2-[1-(2-Fluorophenyl)-1H-1,2,3,4-tetrazol-5-yl]phenyl}phenoxy)acetamide]",1000 nM
7,"Fc1ccccc1-n1nnnc1-c1ccccc1-c1ccccc1 [Compound 40, 1-(2-Fluorophenyl)-5-(2-phenylphenyl)-1H-1,2,3,4-tetrazole]",800 nM
8,"CC(C)Oc1ccccc1-c1ccccc1-c1nnnn1-c1ccccc1F [Compound 9, 1-(2-Fluorophenyl)-5-{2-[2-(propan-2-yloxy)phenyl]phenyl}-1H-1,2,3,4-tetrazole]",770 nM
9,"Fc1ccccc1-n1nnnc1-c1ccccc1-c1ccccc1OC(F)(F)F [Compound 15, 1-(2-Fluorophenyl)-5-{2-[2-(trifluoromethoxy)phenyl]phenyl}-1H-1,2,3,4-tetrazole]",1700 nM
10,"Fc1ccccc1-c1ccccc1-c1nnnn1-c1ccccc1OC(F)F [Compound 58, 1-[2-(Difluoromethoxy)phenyl]-5-[2-(2-fluorophenyl)phenyl]-1H-1,2,3,4-tetrazole]",1100 nM
11,"COc1ccccc1-c1ccccc1-c1nnnn1-c1ccccc1OC [Compound 51, 1-(2-Methoxyphenyl)-5-[2-(2-methoxyphenyl)phenyl]-1H-1,2,3,4-tetrazole]",1200 nM
12,"Fc1ccccc1-c1ccccc1-c1nnnn1-c1ccccc1Cl [Compound 48, 1-(2-Chlorophenyl)-5-[2-(2-fluorophenyl)phenyl]-1H-1,2,3,4-tetrazole]",1000 nM
13,"COc1ccccc1-c1ccccc1-c1nnnn1-c1ccccc1O [Compound 53, 2-{5-[2-(2-Methoxyphenyl)phenyl]-1H-1,2,3,4-tetrazol-1-yl}phenol]",1200 nM
14,"Fc1ccccc1-n1nnnc1-c1ccccc1-c1ccccc1C(F)F [Compound 32, 5-{2-[2-(Difluoromethyl)phenyl]phenyl}-1-(2-fluorophenyl)-1H-1,2,3,4-tetrazole]",870 nM
15,"Fc1ccccc1-n1nnnc1-c1ccccc1-c1ccccc1OCC1CC1 [Compound 6, 5-{2-[2-(Cyclopropylmethoxy)phenyl]phenyl}-1-(2-fluorophenyl)-1H-1,2,3,4-tetrazole]",710 nM

# Results, then the compound that gave them:
row,IC50,Compound
1,69 nM,"COc1ccccc1-c1ccccc1-c1nnnn1-c1ccccc1OC(F)F [Compound 59, 1-[2-(Difluoromethoxy)phenyl]-5-[2-(2-methoxyphenyl)phenyl]-1H-1,2,3,4-tetrazole]"
2,460 nM,"CSc1ccccc1-c1ccccc1-c1nnnn1-c1ccccc1F [Compound 14, 1-(2-Fluorophenyl)-5-{2-[2-(methylthio)phenyl]phenyl}-1H-1,2,3,4-tetrazole]"
3,290 nM,"Fc1ccccc1-n1nnnc1-c1ccccc1-c1ccccc1OC(F)F [Compound 5, 5-{2-[2-(Difluoromethoxy)phenyl]phenyl}-1-(2-fluorophenyl)-1H-1,2,3,4-tetrazole]"
4,37 nM,"CCOc1ccccc1-c1ccccc1-c1nnnn1-c1ccccc1F [Compound 3, 5-[2-(2-Ethoxyphenyl)phenyl]-1-(2-fluorophenyl)-1H-1,2,3,4-tetrazole]"
5,57 nM,"O/N=C/c1ccccc1-c1ccccc1-c1nnnn1-c1ccccc1F [Compound 30, (E)-N-[(2-{2-[1-(2-Fluorophenyl)-1H-1,2,3,4-tetrazol-5-yl]phenyl}phenyl)methylidene]hydroxylamine]"
6,590 nM,"COC(=O)COc1ccccc1-c1ccccc1-c1nnnn1-c1ccccc1F [Compound 8, Methyl 2-(2-{2-[1-(2-fluorophenyl)-1H-1,2,3,4-tetrazol-5-yl]phenyl}phenoxy)acetate]"
7,700 nM,"Fc1ccccc1-c1ccccc1-c1nnnn1-c1ccccc1F [Compound 25, 1-(2-Fluorophenyl)-5-[2-(2-fluorophenyl)phenyl]-1H-1,2,3,4-tetrazole]"
8,540 nM,"COc1ccccc1-c1ccccc1-c1nnnn1-c1ccccc1Cl [Compound 49, 1-(2-Chlorophenyl)-5-[2-(2-methoxyphenyl)phenyl]-1H-1,2,3,4-tetrazole]"
9,110 nM,"COc1ccccc1-c1ccccc1-c1nnnn1-c1ccccc1F [Compound 13, 1-(2-Fluorophenyl)-5-[2-(2-methoxyphenyl)phenyl]-1H-1,2,3,4-tetrazole]"
10,210 nM,"N#Cc1ccccc1-n1nnnc1-c1ccccc1-c1ccccc1OC(F)F [Compound 62, 2-(5-{2-[2-(Difluoromethoxy)phenyl]phenyl}-1H-1,2,3,4-tetrazol-1-yl)benzonitrile]"
11,190 nM,"COCOc1ccccc1-c1ccccc1-c1nnnn1-c1ccccc1F [Compound 16, 1-(2-Fluorophenyl)-5-{2-[2-(methoxymethoxy)phenyl]phenyl}-1H-1,2,3,4-tetrazole]"
12,17 nM,"FCc1ccccc1-c1ccccc1-c1nnnn1-c1ccccc1F [Compound 33, 5-{2-[2-(Fluoromethyl)phenyl]phenyl}-1-(2-fluorophenyl)-1H-1,2,3,4-tetrazole]"
13,550 nM,"O=Cc1ccccc1-c1ccccc1-c1nnnn1-c1ccccc1F [Compound 21, 2-{2-[1-(2-Fluorophenyl)-1H-1,2,3,4-tetrazol-5-yl]phenyl}benzaldehyde]"
14,16 nM,"N#CCOc1ccccc1-c1ccccc1-c1nnnn1-c1ccccc1F [Compound 7, 2-(2-{2-[1-(2-Fluorophenyl)-1H-1,2,3,4-tetrazol-5-yl]phenyl}phenoxy)acetonitrile]"
15,58 nM,"COCc1ccccc1-c1ccccc1-c1nnnn1-c1ccccc1F [Compound 29, 1-(2-Fluorophenyl)-5-{2-[2-(methoxymethyl)phenyl]phenyl}-1H-1,2,3,4-tetrazole]"
16,360 nM,"Fc1ccccc1-n1nnnc1-c1ccccc1-c1ccccc1Cl [Compound 24, 5-[2-(2-Chlorophenyl)phenyl]-1-(2-fluorophenyl)-1H-1,2,3,4-tetrazole]"
17,64 nM,"COc1ccccc1-c1ccccc1-c1nnnn1-c1ccccc1C#N [Compound 56, 2-{5-[2-(2-Methoxyphenyl)phenyl]-1H-1,2,3,4-tetrazol-1-yl}benzonitrile]"
18,550 nM,"Fc1ccccc1-n1nnnc1-c1ccccc1-c1ccccc1Br [Compound 23, 5-[2-(2-Bromophenyl)phenyl]-1-(2-fluorophenyl)-1H-1,2,3,4-tetrazole]"
19,110 nM,"N#Cc1ccccc1-c1ccccc1-c1nnnn1-c1ccccc1F [Compound 31, 2-{2-[1-(2-Fluorophenyl)-1H-1,2,3,4-tetrazol-5-yl]phenyl}benzonitrile]"
20,300 nM,"FCOc1ccccc1-c1ccccc1-c1nnnn1-c1ccccc1F [Compound 12, 5-{2-[2-(Fluoromethoxy)phenyl]phenyl}-1-(2-fluorophenyl)-1H-1,2,3,4-tetrazole]"
21,290 nM,"CCc1ccccc1-c1ccccc1-c1nnnn1-c1ccccc1F [Compound 20, 5-[2-(2-Ethylphenyl)phenyl]-1-(2-fluorophenyl)-1H-1,2,3,4-tetrazole]"
